Measurements from patent US9150608B2, “Neuro-protective compounds and their use” (Biotechnology Research Corp. Ltd., priority 2010, dated 2015).

Assays:
[1] = tested on: Aβ25-35-treated primary cortical neurons; test: Cortical neuron survival assay with amyloid-beta peptide insult (MTT); type: cell-based, rat; conditions: for cell survival of cortical neurons treated with Aβ25-35 (MTT): 50 μM, except GAG-C69 at 30 μM, Aβ25-35 10 μM (FIG. 19)
Procedure: FIG. 4. […] After overnight incubation, the MTT assay was performed. Cell survival was calculated as a percentage compared to vehicle control (“CTL no Abeta”).
Exogenous addition of amyloid beta peptide (Aβ) initiates cell death of neuronal cultures via apoptosis.
The cells were then incubated with test samples and amyloid-beta peptide fragment 25-35 (Aβ, 10 μM, Sigma) in growth medium. A tetrazole, 3-(4,5-Dimethylthiazol-2-yl)-2,5-diphenyltetrazolium bromide (MTT, 5 mg/ml) was added to the medium at a ratio of 1:10 after 24-hr incubation. MTT is reduced by living cells into purple formazan and further solubilized in 20% SDS solution; therefore, the colored solution was measured by spectrophotometer and cell viability was quantified.

[2] = tested on: cyclic AMP response (CRE) element; test: CRE-dependent transcription assay (luciferase); type: cell-based, rat; conditions: hippocampal neurons 12DIV, 50 μM, 6 hours
Procedure: FIG. 41. GAG compounds enhance CRE-dependent transcription activity. GAG-C14 (a), GAG-C53 (b), GAG-C63 (c), GAG-C69 (d), GAG-C84 (e), GAG-C111 (f), GAG-C122 (g), GAG-C123 (h), and GAG-C129 (i) induce CRE-dependent transcriptional activity in cultured hippocampal neurons. On the day of cell seeding, hippocampal neurons were transfected with a firefly luciferase reporter plasmid containing cyclic AMP response (CRE)-element. The cells at 12 DIV were then treated with 50 μM of AG compounds for 6 hours. Data are mean±SEM (n=3-4), *=P<0.05, **=P<0.01, and ***=P<0.005 versus vehicle-treated cells (0 μM), student's t test.
Cultured hippocampal neurons were transfected with a firefly luciferase reporter plasmid containing a cyclic AMP response (CRE) element. At 12DIV, the cells were treated with 50 μM of compound for 6 hours, then CRE-dependent transcription activity was assayed by measuring luciferase levels.
Freshly isolated embryonic cortical neurons were transfected with a luciferase reporter gene (Cre-Luc) linked to CREB activation following the ACM lipofectamine method using Lipofectamine 2000, a cationic liposome based reagent (Invitrogen). […] Transfection was performed using 1 μL Lipofectamine 2000 and 0.4 μg DNA per well. Neurons were then treated with test samples for time periods of 6 hours. After treatment, the cells were washed with ice-cold DPBS and 100 μL of 1× luciferase lysis buffer (Promega) was added. The plates were placed in −20° C. to freeze the cells, after which they were thawed to facilitate lysis. The lysates were transferred onto white bottom plates and assayed for renilla luciferase using the luciferase assay kit (Promega). Increased CREB activation in the neurons leads to an enhanced luciferase production and this was quantified using a Promega GloMax™ 96 microplate luminometer. […] BDNF and rolipram were used as positive controls.

[3] = tested on: cleaved-caspase-3; test: Caspase-3 expression in cortical neurons in the presence of amyloid-beta peptide (Western blot); type: cell-based, rat; conditions: 10-50 μg/mL in the presence of Aβ25-35 (10 μM), overnight
Procedure: FIG. 5. Adelostemma gracillimum refined fraction inhibits caspase-3 production in primary cortical neurons induced by Aβ. Primary cortical neuron cultures (7DIV) were treated with various concentrations of AG-0 (10-50 μg/mL) in the presence of Aβ25-35 (10 μM). Proteins were extracted after overnight incubation and Western blot analysis was performed. Blots were probed with antibodies against caspase-3 and ERK protein. Staurosporine (STS, 10 μM) was used as a positive control, while DMSO served as the vehicle control.
The cells were then incubated with test samples and amyloid-beta peptide fragment 25-35 (Aβ, 10 uM, Sigma) in growth medium.

[4] = tested on: NMDA receptor; test: Whole-cell patch clamp; type: cell-based, rat; conditions: hippocampal neurons, −70 mV
Procedure: FIG. 31. GAG-C73 inhibits NMDA-induced current in hippocampal neurons. The effects of GAG-C73 on NMDA-activated currents in rat hippocampal neurons (11DIV) were examined using whole-cell patch clamp studies. Addition of NMDA induced depolarization and initiated an inward current in pyramidal cells. A. Examples of NMDA-activated currents before, during, and after application of GAG-C73 (30 μM) are shown. Horizontal bars denote GAG-C73 application. B-C. […] DMSO was used as a solvent control. The concentration of glycine was 0.1 μM, and membrane potential was held at −70 mV. n=10; three independent experiments were performed. *=P<0.05.
The NMDA receptor is a gated ion channel, which allows inflow of current during a nerve impulse. Antagonists to the receptor would prevent the inflow of current.
Hippocampal neurons were plated onto PDL-coated 35 mm dishes (NUNC) at a density of 3×10^5 cells per plate. Half of the medium was changed with NB, B27 and […] L-glutamine every 2 to 3 days. On day 12 in vitro (12DIV), whole-cell patch clamp study was performed. […] Holding potential of patched cells was kept at −70 mV and currents were recorded using Axopatch-200B amplifier (Axon Instruments, USA). […] Data was analyzed by pClamp9 software and percentage of inhibition on NMDA-induced current was' represented in comparison to a DMSO solvent control.

[5] = tested on: NMDA receptor-induced excitotoxicity in primary cortical neuronal cells; test: NMDA survival assay (LDH release)
Procedure: Embryonic rat cortical neurons (11 DIV) were pre-treated with various concentrations of AG—0 (0.1 -30 μg/mL) and then co-incubated with NMDA (20 μM). After 20 min, the medium was replaced with fresh medium, and after overnight incubation lactate dehydrogenase (LDH) released into the medium was measured. Cell death was calculated as a percentage compared to solvent control (“CTL without NMDA”). Assays were conducted in duplicate and repeated at least twice. *=P<0.05.
Cortical neurons were plated on 48-well plate (Nunc) at a density of 1.1×10^5 cells per well and cultured for 11-12 days (11-12 DIV). Neurons were pre-treated with the test compounds for 2 hours prior to N-Methyl-D-Aspartate (NMDA, Sigma) or glutamate (MSG, Sigma) treatment. Briefly, the neurons were rinsed with Locke's solution (5 mM potassium chloride, 128 mM sodium chloride, 2.7 mM calcium chloride, 1 mM di-sodium hydrogen orthophosphate, 5 mM HEPES and 10 mM glucose in Milli-Q water) without Mg^2+, followed by incubation in Locke's solution with addition of glycine (0.1 μM) for 15 minutes. After the incubation, the neurons were co-treated with the test compound (dissolved in Locke's plus glycine solution) and NMDA (20 μM) or glutamate for 20 min. Neurons were then rinsed with Locke's solution containing Mg^2+ and replaced with fresh growth medium. Cell death was assayed and quantified using the lactate dehydrogenase release assay (Cytotoxicity Detection Kit, Roche). Data was compared to a DMSO vehicle control and represented in mean±SEM. The student t-test was used for statistical analysis.

[6] = tested on: phosphorylated ERK, CREB, Akt, P38, MEK in cortical neurons; test: Western blot detection of signaling proteins in cortical neurons; type: cell-based, rat; conditions: cortical neurons 7DIV, 0.1-10 μM, 15 min (FIGS. 16, 18, 20)
[7] = tested on: glutamate-induced excitotoxicity in cortical neurons; test: Glutamate survival assay (LDH release); type: cell-based, rat; conditions: 30 μM; glutamate 10-200 μM, all concentrations examined
Procedure: FIG. 34. GAG-C73 decreases primary neuron cell death induced by high doses of glutamate. Cortical neurons were incubated with GAG-C73 (30 μM) or DMSO control for 2 hrs, followed by co-treatment with differing concentrations of glutamate (10-200 μM) for 20 min. LDH release into the medium was then measured.
Glutamate is the physiological neurotransmitter that activates NMDA receptors. However, excess amounts of glutamate can result in excitotoxicity and potential cell death. Survival assays were conducted to determine the ability of GAG-C73 to effectively protect neuronal cells from glutamate-induced excitotoxicity.

CRE-dependent transcription activity (luciferase) [2]	SMILES	cell survival of cortical neurons treated with Aβ25-35 (MTT) [1]	survival of neurons against Aβ insult (MTT) ([1]; various concentrations, Aβ25-35 10 μM)	expression level of cleaved-caspase-3 (17 kDa, active form) [3]	NMDA-induced current (peak and plateau) ([4]; 30 μM co-treatment with NMDA)	NMDA-induced current with increasing doses [4]	cell death compared to the DMSO control (LDH) ([5]; 30 μM, NMDA 5-100 μM, at toxic dosages of NMDA)	neuronal survival following NMDA treatment (LDH) ([5]; 30-50 μM pre-treated 2 hours, NMDA 20 min (FIG. 17))	cell death compared to the DMSO control (LDH) ([5]; varying concentrations pre-treated 2 hrs, NMDA 20 μM)	ERK phosphorylation [6]	cell death compared to the DMSO control (LDH) [7]
enhances CRE-dependent transcription	C/C=C/c1ccc2c(c1)OC(c1ccc(O)c(OC)c1)C(C)O2 (stereo not drawn) [GAG-C69, 3-methoxyl-4-hydroxyl-(7′-E)-5′7-epoxy-8,4′-oxyneolignane-7′ en]	promoted cell survival	increases the survival of neurons against Aβ insult comparable to control levels	significantly decreased to levels comparable to that without Aβ							
	C=C(C)[C@@H]1CCC2(C(=O)O)CC[C@]3(C)C(=CCC4[C@@]5(C)CCC(O)[C@@](C)(CO)C5CC[C@]43C)C12 (stereo partly drawn) [GAG-C73, 3,23-dihydroxyl-12(13)-en-Lup-20(29)-en-28-oic acid]	promoted cell survival			reduced the current induced by NMDA, for both peak and plateau currents	further decreased the NMDA-induced current	significant reduction in cell death	promoted neuronal survival	significant dose-dependent reduction in cell death	induced ERK phosphorylation	significant reduction in cell death
